Source: patent publication US5089516A, “1-phenyl-3,5-pyrazolidinedione hydroxystyrene compounds which have tyrosine kinase inhibiting activity” (Kanegafuchi Kagaku Kogyo Kabushiki Kaisha, priority 1987, dated 1992)
Values after ≈ are worked out from the molar mass of the structure shown. Values joined by “and” are separate entries in the source; they are usually repeats but may differ in a detail not shown here. Identical values can stand only once.

Key:
[1] = tested on: Micrococcus luteus IFO 13867; assay: Antibacterial activity (MIC) against Micrococcus luteus IFO 13867; assay type: cell-based; conditions: IFO13867, 37° C., 18 to 20 hours
Procedure: (§1) The antibacterial activity against Gram-positive bacteria of the compound of the present invention was measured according to a standard method of Nippon Kagaku Ryoho Gakkai [Nippon Kagaku Ryoho Gakkaishi (Journal of the Chemical therapy of Japan), 29, 76(1981)].
(§2) As for gram-positive bacteria, after cultivation in Meuller Hinton broth medium (made by Difco Co., Ltd.), there was prepared a bacterial suspension for inoculation containing about 10^6 of the bacteria per 1 ml of the Meuller Hinton broth medium. On the other hand, the test compound was added to Mueller Hinton agar medium (made by Difco Co., Ltd.) so as to give agar plate medium containing test samples which are twofold serial diluted. Then, the above-mentioned bacterial suspension for inoculation was streaked to each agar medium for about 2 cm with a looped nichrome wire (inner diameter: about 1 mm).
(§3) After that the each agar plate medium was cultured at 37° C. for 18 to 20 hours, the growth of the test bacteria was determined.

[2] = tested on: Staphylococcus aureus IFO 12732; assay: Antibacterial activity (MIC) against Staphylococcus aureus IFO 12732; assay type: cell-based; conditions: IFO12732, 37° C., 18 to 20 hours
Procedure: as §1, §2, §3

[3] = target: T1, epidermal growth factor receptor-tyrosine kinase complex (Homo sapiens, UniProt P00533); assay: Tyrosine kinase inhibiting activity (A-431 membrane preparation, EGF-stimulated); assay type: biochemical; conditions: 1 μM in the reaction mixture; read-out: Tyrosine kinase inhibition rate
T1 construct: The membrane preparation was employed in the following measurement without solubilization; endogenous in cells; host or cells: A-431 (ATCC CRL1555), membrane preparation, not solubilized
T1 sequence (P00533 25-1210, one chain of several): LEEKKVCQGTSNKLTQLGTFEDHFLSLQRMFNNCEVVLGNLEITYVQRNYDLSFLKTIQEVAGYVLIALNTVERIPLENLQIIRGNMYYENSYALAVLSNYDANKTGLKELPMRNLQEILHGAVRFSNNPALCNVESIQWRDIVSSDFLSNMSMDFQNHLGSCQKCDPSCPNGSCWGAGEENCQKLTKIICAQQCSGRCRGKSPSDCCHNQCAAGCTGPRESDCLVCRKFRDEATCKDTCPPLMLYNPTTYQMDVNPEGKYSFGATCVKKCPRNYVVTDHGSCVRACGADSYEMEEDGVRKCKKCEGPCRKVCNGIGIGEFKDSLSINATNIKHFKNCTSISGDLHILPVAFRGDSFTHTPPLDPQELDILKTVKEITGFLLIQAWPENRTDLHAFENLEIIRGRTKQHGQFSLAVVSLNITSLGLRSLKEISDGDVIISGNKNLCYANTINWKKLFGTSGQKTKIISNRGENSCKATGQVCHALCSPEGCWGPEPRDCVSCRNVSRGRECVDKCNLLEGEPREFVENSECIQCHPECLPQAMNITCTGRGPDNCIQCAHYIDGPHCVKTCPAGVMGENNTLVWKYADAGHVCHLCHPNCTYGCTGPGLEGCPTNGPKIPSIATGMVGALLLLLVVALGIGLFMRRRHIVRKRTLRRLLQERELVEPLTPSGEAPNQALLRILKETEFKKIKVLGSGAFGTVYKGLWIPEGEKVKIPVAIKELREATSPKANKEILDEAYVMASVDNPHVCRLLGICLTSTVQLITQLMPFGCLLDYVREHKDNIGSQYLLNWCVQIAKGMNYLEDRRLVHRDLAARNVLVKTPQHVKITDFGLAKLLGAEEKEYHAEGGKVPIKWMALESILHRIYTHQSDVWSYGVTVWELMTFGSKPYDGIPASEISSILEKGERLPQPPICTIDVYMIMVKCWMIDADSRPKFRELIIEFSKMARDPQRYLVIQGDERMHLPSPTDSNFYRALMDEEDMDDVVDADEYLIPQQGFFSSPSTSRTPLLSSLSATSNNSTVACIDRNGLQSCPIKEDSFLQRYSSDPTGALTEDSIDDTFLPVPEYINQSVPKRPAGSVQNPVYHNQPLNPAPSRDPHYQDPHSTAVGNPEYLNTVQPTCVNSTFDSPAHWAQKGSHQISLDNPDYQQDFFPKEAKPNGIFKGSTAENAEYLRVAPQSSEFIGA
Procedure: Tyrosine kinase inhibiting activity of the compound of the present invention was measured referring to a method for measuring tyrosine kinase activity by G. Carpenter or by S. Cohen et al. [J. Biol. Chem., 254, 4884(1979); J. Biol. Chem., 257, 1528(1982)].
Cell line A-431 derived from human carcinoma (ATCC CRL1555) was cultured at 37° C. under the condition of 5% CO2 in Dulbecco's modified Eagle's medium (made by NISSUE PHARMACEUTICAL CO., LTD.) containing 10% by volume fetal bovine serum, 50 μg/ml of streptomycin, 50 IU/ml of penicillin G and 50 μg/ml of kanamycin. […] The membrane preparation was employed in the following measurement without solubilization.
A test compound dissolved in dimethylsulfoxide (hereinafter referred to as "DMSO") was added to a mixture of 20 mM of N-2-hydroxyethylpiperazine-N'-2-ethanesulfonic acid buffer (pH 7.4), 1 mM of MnCl2, 7.5 μg of bovine serium albumin and the membrane preparation (10 μg as protein). After incubation at 0° C. for 5 minutes, 100 ng of epidermal growth factor (hereinafter referred to as "EGF") was added thereto and the mixture was further incubated at 0° C. for 15 minutes. [γ-^32 P]ATP (3000 Ci/mmol, 0.1 μCi) was added thereto to make final volume of 70 μl. After incubation at 0° C. for 15 minutes, 50 μl of the reaction mixture was soaked into Whatman 3 MM filter paper (made by Whatman Ltd.) and immediately the reaction was stopped by an aqueous solution of 10% by weight trichloroacetic acid containing 10 mM sodium pyrophosphate. The filter paper was sufficiently washed with the same solution and then washed with ethanol, and dried. Radioactivity present in the filter paper was measured by liquid scintillation counter (A). Also, radioactivity was measured in case of the reaction without EGF (B), the reaction without the test compound (C), and the reaction without both EGF and the test compound (D) as a control.
Tyrosine kinase inhibition rate (%) was calculated by the following equation. [formula]

[4] = tested on: Bacillus subtilis IFO 3134; assay: Antibacterial activity (MIC) against Bacillus subtilis IFO 3134; assay type: cell-based; conditions: IFO3134, 37° C., 18 to 20 hours
Procedure: as §1, §2, §3

[5] = target: T2, reverse transcriptase derived from Moloney-Murine Leukemia Virus (M-MLV) (Moloney murine leukemia virus, UniProt P03355); assay: Inhibiting activity against reverse transcriptase derived from M-MLV; assay type: biochemical; conditions: read-out: Inhibition rate (reverse transcriptase derived from M-MLV); for inhibition at 1 µM: 1 μM in the reaction mixture
T2 construct: reverse transcriptase derived from Moloney-Murine Leukemia Virus; purchased Pharmacia K. K
Procedure: There was found the following point by using reverse transcriptase derived from Moloney-Murine Leukemia Virus (hereinafter referred to as "M-MLV").
The compound of the present invention was dissolved in DMSO to give a 100 mM solution thereof. Then, the solution was diluted with distilled water containing DMSO to give a solution of the test compound having a defined concentration. A mixed ratio of DMSO and distilled water was adjusted so that the concentration of DMSO at this time is 10% by volume and a final concentration of DMSO at the beginning of a reaction is 1% by volume.
The thus prepared solution of the test compound was mixed with a solution containing 50 mM of Tris--HCl buffer (pH 8.3), 8 mM of MgCl2, 30 mM of NaCl, 50 mM of dithiothreitol (made by Wako Pure Chemical Industries Ltd.), 0.2 mM of thymidine-5'-triphosphate (made by Pharmacia K. K.) and 6 U/ml of reverse transciptase derived from M-MLV (made by Pharmacia K. K.), and preincubated at 37° C. for 30 minutes. After there was added thereto 10 μg/ml of polyadenylic acid (made by PL Biochemicals Co., Ltd.), 0.01 U/ml of oligodeoxy thymidylic acid (made by Pharmacia K. K.) and 10 μCi/ml of [methyl-^3 H] thymidine-5'-triphosphate (made by Amersham Japan Co., Ltd., 47 Ci/mmol) to give a reaction mixture, the mixture was further incubated at 37° C. for 30 minutes, followed by cooling with ice to stop the reaction.
The radioactivity incorporated into deoxyribonucleic acids was measured according to the method of Linteril et al (Science 170, 447 to 449 (1967)). A defined volume of the reaction mixture was soaked into DE-81 filter paper (made by Whatman Ltd.), the filter paper was washed with 5% by weight of Na2 HPO4 solution for three times, and with distilled water and ethanol successively, and then dried. Radioactivity contained in the filter paper was measured by liquid scintillation counter to give the each radioactivity of the test solution groups.
On the other hand, the same procedure as above was carried out using DMSO-distilled water without the test compound instead of using the test solution, to give the value of radioactivity of a control group.
Reverse transcriptase derived from M-MLV inhibition rate (%) was calculated by the following equation. [formula]

[6] = tested on: Nycobacterium smegmatis ATCC 607; assay: Antibacterial activity (MIC) against acid-fast bacteria; assay type: cell-based; conditions: 37° C., 40 to 42 hours
Procedure: As for acid-fast bacteria, after cultured in glycerol broth medium, there was prepared a bacterial suspension for inoculation containing about 10^6 of the bacteria per 1 ml of the medium. On the other hand, there were prepared some glycerol Czapek agar plating media with adding the test compounds, and thereto the bacterial suspension for inoculation was streaked.

5-lipoxygenase = target: T3, 5-lipoxygenase (Cavia porcellus, UniProt A0A286X958); assay: 5-Lipoxygenase inhibiting activity (5-HETE formation, cytosol of peritoneal exudate cells); assay type: biochemical, Hartley guinea pigs; conditions: 10 μM in the reaction mixture; read-out: Inhibition rate (5-lipoxygenase)
T3 construct: The cytosol fraction was used as an enzyme solution; from tissue; host or cells: peritoneal exudate cells of casein-injected Hartley guinea pigs, 105,000×g cytosol
T3 sequence (A0A286X958 1-674): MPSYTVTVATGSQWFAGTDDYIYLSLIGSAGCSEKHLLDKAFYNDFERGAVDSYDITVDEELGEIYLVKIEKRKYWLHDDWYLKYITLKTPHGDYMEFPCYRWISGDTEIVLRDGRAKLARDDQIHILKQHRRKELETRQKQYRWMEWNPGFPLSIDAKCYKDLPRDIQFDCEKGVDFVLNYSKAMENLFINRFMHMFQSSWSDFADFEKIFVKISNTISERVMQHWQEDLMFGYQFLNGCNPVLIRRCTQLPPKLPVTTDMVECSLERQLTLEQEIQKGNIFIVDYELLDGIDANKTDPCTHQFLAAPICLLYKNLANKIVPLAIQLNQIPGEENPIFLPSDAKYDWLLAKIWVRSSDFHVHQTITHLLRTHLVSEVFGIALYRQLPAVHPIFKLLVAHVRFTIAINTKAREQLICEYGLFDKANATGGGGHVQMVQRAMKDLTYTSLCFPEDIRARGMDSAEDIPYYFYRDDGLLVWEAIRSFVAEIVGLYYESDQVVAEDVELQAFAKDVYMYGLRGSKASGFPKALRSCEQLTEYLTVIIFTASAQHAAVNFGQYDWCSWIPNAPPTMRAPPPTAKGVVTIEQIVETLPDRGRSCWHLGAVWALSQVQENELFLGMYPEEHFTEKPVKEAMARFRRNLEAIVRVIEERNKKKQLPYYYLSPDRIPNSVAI
Procedure: 5-Lipoxygenase inhibiting activity of the compound of the present invention was measured referring to the method for measuring 5-lipoxygenase activity by K. Ochi et al. [Journal of Biological Chemistry (J. Biol. Chem.), 258, 5754(1983)].
Sterilized 2% solution of casein (pH 7) was injected intraperitoneally into Hartley guinea pigs in a volume of 5 ml/100 g body weight. Fifteen hours later, the guinea pigs were killed and peritoneal exudate cells thereof were collected. After the exudate cells were washed with 17 mM Tris--HCl buffer (pH 7.4) containing 0.74% ammonium to remove contaminating erythrocytes in the exudate cells suspension, the cells were washed with buffer A (130 mM NaCl, 1 mM EDTA, 25 mM sodium phosphate, pH 7.4). The washed cells were suspended in buffer B (50 mM sodium phosphate, 1 mM EDTA, 0.1% gelatin, pH 7.4) at 10^8 cells/ml, sonicated and centrifuged at 10,000×g for 20 minutes under the cold atmosphere. The obtained supernatant was further centrifuged at 105,000×g for 60 minutes under the cold atmosphere. The cytosol fraction was used as an enzyme solution.
The enzyme solution was preincubated with the […] in the presence of 1 mM CaCl2, 1 mM reduced gluthathione (GSH) and 2 mM ATP at 30° C. for 5 minutes in 0.2 ml of a reaction mixture and the mixture was further incubated at 30° C. for 5 minutes by adding 20 μM [1-^14 C] arachidonic acid (0.1 μCi) thereto. The test compounds were dissolved in ethanol to give the reaction mixture containing 2% ethanol as a final concentration. Only ethanol was added to the reaction mixture as a control group.
To the reaction mixture were added 2.5 ml of a mixture of chloroform and methanol (2/1 by volume) and 0.3 ml of 40 mM citric acid to stop the reaction. The mixture was vortexed and an organic solvent layer was evaporated to dryness under nitrogen gas. After dissolving the dried organic layer in a fixed amount of the mixture of chloroform and methanol (2/1 by volume), it was spotted on a silica gel plate (Kiesel gel 60F254, E. Merck) and products were separated using a developer (the organic solvent layer of ethyl acetate/water/2,2,4-trimethylpentane/acetic acid=11/10/5/2 by volume). After the radioactive position of the product was determined by means of a radioautography, an area equivalent to that of 5-hydroxyeicosatetraenoic acid (hereinafter referred to as "5-HETE") was scraped off, and then its radioactivity was measured with a liquid scintillation counter. With regarding the amount of the generated 5-HETE as the 5-lipoxygenase inhibiting activity, the inhibition rate (%) in comparison with the control group was calculated according to the following equation. [formula]

UV absorption spectrum = assay type: physicochemical; conditions: in methanol; for molar extinction coefficient: at the λ max of the same line
Procedure: Each UV absorption spectrum of the compounds of the present invention was measured according to the conventional method, in which methanol was used as a solvent, and thereby molar extinction coefficient thereof was calculated.

| Compound | MIC [1] | MIC [2] | inhibition at 1 µM [3] | MIC [4] | inhibition at 1 µM [5] | MIC [6] | inhibition at 10 µM (5-lipoxygenase) | λ max (UV absorption spectrum) | molar extinction coefficient (UV absorption spectrum) | inhibition at 10 µM ([5]; 10 μM in the reaction mixture) |
| --- | --- | --- | --- | --- | --- | --- | --- | --- | --- | --- |
| O=C1NC(=S)SC1=Cc1cc(-c2ccccc2)c(O)c(-c2ccccc2)c1 [Compound 1] | ≤ 6 µg/mL | 12 µg/mL (≈ 30.8 µM) | 23% | ≤ 6 µg/mL | 96% | 6 µg/mL (≈ 15.4 µM) | – | – | – | – |
| O=C1Nc2ccccc2C1=Cc1cc(Cc2ccccc2)c(O)c(Cc2ccccc2)c1 [Compound 4] | ≤ 6 µg/mL | – | 74% | – | – | – | 85% | 257 nm and 361 nm | 1.87 × 10^4 and 1.80 × 10^4 | – |
| N#CC(=Cc1cc(-c2ccccc2)c(O)c(-c2ccccc2)c1)C(N)=O [Compound 15] | 60 µg/mL (≈ 176 µM) | 60 µg/mL (≈ 176 µM) | 100% | 100 µg/mL (≈ 294 µM) | – | ≤ 15 µg/mL | – | 271 nm and 348 nm | 2.04 × 10^4 and 2.11 × 10^4 | 59% |
| N#CC(=Cc1cc(Cc2ccccc2)c(O)c(Cc2ccccc2)c1)C(N)=O [Compound 16] | ≤ 15 µg/mL | ≤ 15 µg/mL | 100% | ≤ 15 µg/mL | – | ≤ 15 µg/mL | 28% | 249 nm and 347 nm | 1.51 × 10^4 and 2.40 × 10^4 | – |
| O=C1NCCC1=Cc1cc(Cc2ccccc2)c(O)c(Cc2ccccc2)c1 [Compound 18] | – | – | 87% | – | – | – | – | 304 nm | 1.87 × 10^4 | – |
| O=C1NN(c2ccccc2)C(=O)C1=Cc1cc(-c2ccccc2)c(O)c(-c2ccccc2)c1 [Compound 19] | 50 µg/mL (≈ 116 µM) | 100 µg/mL (≈ 231 µM) | 74% | 100 µg/mL (≈ 231 µM) | 75% | ≤ 6 µg/mL | – | – | – | – |
